The source of these data is patent EP0022634A1, “Acylated indole derivatives, processes for their preparation and pharmaceutical compositions and drugs comprising them” (TEIJIN LIMITED, priority 1979, dated 1981).

Molecules are shown by their SMILES. Values after ≈ are worked out from the molar mass of the structure shown. Read-outs that look alike come from different tables or passages of the source.

Experiment [1] deals with platelet aggregation. Briefly: in vitro platelet aggregation inhibiting activity (sodium arachidonate as aggregating agent). Format: cell-based. The note with it: guinea pigs PRP, final concentration 0.1 millimole, minimum final concentration whose inhibiting rate exceeded 50 %. The method, then: The platelet aggregation inhibiting activities in vitro of test drugs including the acylated indole derivatives of this invention were assayed using guinea pigs PRP.
As an aggregating agent, sodium arachidonate having a final concentration of 0.1 millimole was used.
The citrated blood was centrifuged at 1000 rpm for 10 minutes at room temperature, and the supernatant liquid (PRP) was separated.
The resulting PRP was stored at room temperature, and used as early as possible. PRP stored for more than 4 hours was not used.
A compound having a free carboxylic acid as a residue, such as Indomethacin and Ibprofen, was dissolved in O.lM NaHC03 to provide a sodium salt solution having a concentration of 10 mg/ml. The solution was similarly diluted with physiological saline to prepare a solution of a test drug.
The solution was diluted with physiological saline to form a 1mM solution which was used in the test.
50 µℓ of physiological saline and 50 µℓ of the aggregating agent solution were added to 400 µℓ of PRP which had been warmed in a cuvette at 37°C in an aggregometer to aggregate the platelet. The aggregation curve was recorded for 3 minutes by an aggregometer (a product of Bryston Company). The maximum degree of aggregation in this platelet aggregation was defined as the maximum degree of aggregation in the blank.
Then, 50 µℓ of a 1mM solution of sodium arachidonate was added, and the platelet aggregation curve was recorded in the same way as in (1) above. From the curve, the maximum degree of aggregation was calculated, and the inhibiting rate was calculated in accordance with the following equation. Maximum degree of aggregation Inhibiting 100 - in the Ibprofen-added system 100 rate (%) Maximum degree of aggregation in the blank
If these inhibiting rates are not attained, the concentration of the solution of sodium arachidonate is not suitable, and therefore, its concentration should be re-adjusted, and the test shall be performed again.
50 µℓ of the test compound solution was added to 400 µℓ of PRP, and the mixture was pre-incubated in the same way as in(2) above. Then, 50 µℓ of the solution of sodium arachidonate having its concentration adjusted in (2) was added, and the aggregation curve was recorded for 3 minutes. The maximum degree of aggregation of platelet within this period was measured, and the rate of inhibition was calculated from the following equation. […] Maximum degree of aggregation Inhibiting _ 100 - in the drug-added system x 100 rate (%) Maximum degree of aggregation in the blank
For details of the in vitro platelet aggregation inhibiting test, see H. M. Davis, J. Phyllis, K. Paul and W. Terry: Thromb. […] Haemos.

Experiment [2] concerns platelet aggregation. Briefly: extra vivo platelet aggregation inhibiting activity after oral administration, collagen as aggregating agent. Format: in vivo, guinea pigs. Particulars: Cavia porcellus. Here is the method: The collagent floating solution made by Hormone Company of west Germany was diluted with physiological saline to a concentration of 100 µg/ml for use in the test.
(§1) The platelet aggregation inhibiting activities extra vivo of drugs sampled at random were examined using guinea pigs.
(§2) The drugs were used dissolved in propylene glycol to a concentration of 1 mg/ml (when the dosage was 1 mg/kg), 10 mg/ml (when the dosage was 10 mg/kg), and 30 mg/ml (when the dosage was 30 mg/kg). The drugs were administered orally to male Hartley guinea pigs (three in a group) having a body weight of 300 to 350 g. Propylene glycol was administered to a control group.
(§3) One hour, or 4 hours after the administration, citrated blood was taken out from the subject by cardiac puncture.
(§4) The guinea pigs were caused to fast overnight before use.
(§5) The inhibiting rate of the test drugs was measured as follows: • 450 µℓ of PRP was put into a cuvette of an aggregometer, and then 50 µℓ of the aggregating agent was added. The aggregation curve was recorded for 3 minutes, and the maximum degree of aggregation was measured. As a blank, the maximum degree of aggregation of PRP of the group of guinea pigs to which propylene glycol had been administered was measured. The rate of inhibition was calculated from the following equation. [formula]
(§6) As the aggregating agent, 0.03 mM (final concentration sodium arachidonate and 5 µg/ml (final concentration) collagen floating solution were used.
For details of the extra vivo platelet aggregation inhibiting test, see Davis. H. M., Phyllis, J., Paul, K and Terry, W.: Thromb. Res. 11, 217-226 (1977) and Anderson R. E. and Foulks J. G.: Thromb. Haemos. 36, 343-359 (1976).

The subject of experiment [3] is platelet aggregation. In words: extra vivo platelet aggregation inhibiting activity after oral administration, sodium arachidonate as aggregating agent. The note with it: Cavia porcellus, 0.03 mM sodium arachidonate; for inhibition at 10 mg/kg: oral dosage 10 mg/kg; for inhibition at 1 mg/kg: oral dosage 1 mg/kg. Format: in vivo, guinea pigs. The method, then: as §1, §2, §3, §4, §5, §6
For details of the extra vivo platelet aggregation inhibiting test, see Davis. H. M., Phyllis, J., Paul, K and Terry, W.: Thromb. […] Haemos.

[4] abbreviates: Cavia porcellus, Platelet, read-out: IC50.
The mark [5] stands for this setting: po, 1 h, read-out: Rate of inhibition of platelet aggregation, Collagen, After 1 hour.
Where [6] appears, read: po, 4 h, read-out: Rate of inhibition of platelet aggregation, Collagen, After 4 hours.
The mark [7] stands for this setting: blood taken 1 hour after administration, read-out: Rate of inhibition of platelet aggregation, Sodium arachidonate, After 1 hour.
Where [8] appears, read: blood taken 4 hours after administration, read-out: Rate of inhibition of platelet aggregation, Sodium arachidonate, After 4 hours.

Consider `CCC(CO)n1c(C)c(C(=O)c2ccccc2)c2ccccc21` (stereo not shown) [(101), 3-Benzoyl-1-(1-hydroxy-2-butyl)-2-methylindole], for which the IC50 in experiment [1] (setting [4]) was 0.1 µg/mL (≈ 0.325 µM). Further, the inhibition at 10 mg/kg stood at 100% in experiment [2] (setting [5]), 100% in experiment [2] (setting [6]), 99% in experiment [3] (setting [7]) and 99% in experiment [3] (setting [8]).
As for `CCOCC(CC)n1c(C)c(C(=O)c2ccccc2)c2ccccc21` (stereo not shown) [(312), 3-Benzoyl-1-(1-ethoxy-2-butyl)-2-methylindole], the IC50 in experiment [1] (setting [4]) was found to be 0.25 µg/mL (≈ 0.745 µM). Besides, the inhibition at 10 mg/kg in experiment [2] (setting [5]), in experiment [2] (setting [6]), in experiment [3] (setting [7]) and in experiment [3] (setting [8]) was 100% each time.
For `CCC(COC)n1c(C)c(C(=O)c2ccccc2)c2ccccc21` (stereo not shown) [(311), 3-Benzoyl-1-(1-methoxy-2-butyl)-2-methylindole], the IC50 in experiment [1] (setting [4]) was 0.25 µg/mL (≈ 0.778 µM). The inhibition at 10 mg/kg turned out to be 100% in experiment [2] (setting [5]), 81.1% in experiment [2] (setting [6]), 68.8% in experiment [3] (setting [7]) and 100% in experiment [3] (setting [8]).
For `CC(=O)OCC(C)n1c(C)c(C(=O)c2ccccc2)c2ccccc21` (stereo not shown) [(200), 1-(1-Acetoxy-2-propyl)-3-benzoyl-2-methylindole], the IC50 in experiment [1] (setting [4]) worked out at 0.075 µg/mL (≈ 0.224 µM). Also, the inhibition at 1 mg/kg in experiment [3] (setting [7]) was found to be 90%; in experiment [3] (setting [8]), 91.8%.
As to `COCC(C)n1c(C)c(C(=O)c2cccs2)c2ccccc21` (stereo not shown) [(315), 1-(1-Methoxy-2-propyl)-2-methyl-3-thenoylindole], the IC50 in experiment [1] fell in the range of 0.01 to 0.1 µg/mL.
For `CSCC(C)n1c(C)c(C(=O)c2ccccc2)c2ccccc21` (stereo not shown) [(402), 3-Benzoyl-2-methyl-1-(1-methylthio-2-propyl)-indole], the IC50 in experiment [1] (setting [4]) worked out at 0.075 µg/mL (≈ 0.232 µM).
`COCCC(C)n1c(C)c(C(=O)c2ccccc2)c2ccccc21` (stereo not shown) [(306), 3-Benzoyl-1-(4-methoxy-2-butyl)-2-methylindole]: the IC50 in experiment [1] (setting [4]) is 0.25 µg/mL (≈ 0.778 µM). Besides, the inhibition at 10 mg/kg in experiment [2] (setting [5]), in experiment [2] (setting [6]), in experiment [3] (setting [7]) and in experiment [3] (setting [8]) was 100% in each case.
As to `Cc1c(C(=O)c2ccccc2)c2ccccc2n1C(C)C[S+]([O-])c1ccccc1` (stereo not shown) [(501), 1-(1-Benzenesulfinyl-2-propyl)-3-benzoyl-2-methylindole], the inhibition at 10 mg/kg in experiment [2] (setting [5]), in experiment [2] (setting [6]), in experiment [3] (setting [7]) and in experiment [3] (setting [8]) was 100% in each case.
For `CCSCC(CC)n1c(C)c(C(=O)c2ccccc2)c2ccccc21` (stereo not shown) [(417), 3-Benzoyl-1-(1-ethylthio-2-butyl)-2-methylindole], the inhibition at 10 mg/kg came to 100% in experiment [2] (setting [5]), 100% in experiment [2] (setting [6]), 100% in experiment [3] (setting [7]) and 37% in experiment [3] (setting [8]).
For the compound `Cc1c(C(=O)c2ccccc2)c2ccccc2n1C(C)CSc1ccccc1` (stereo not shown) [(401), 3-Benzoyl-2-methyl-1-(1-phenylthio-2-propyl)-indole], the IC50 in experiment [1] (setting [4]) amounted to 0.25 µg/mL (≈ 0.648 µM). Also, the inhibition at 10 mg/kg in experiment [2] (setting [5]), in experiment [2] (setting [6]), in experiment [3] (setting [7]) and in experiment [3] (setting [8]) was 100% each time.
`CC(=O)OCCC(C)n1c(C)c(C(=O)c2ccccc2)c2ccccc21` (stereo not shown) [(201), 1-(4-acetoxy-2-butyl)-3-benzoyl-2-methylindole]: in experiment [1] (setting [4]), the IC50 was 0.075 µg/mL (≈ 0.215 µM). Besides, the inhibition at 10 mg/kg in experiment [2] (setting [5]), in experiment [2] (setting [6]), in experiment [3] (setting [7]) and in experiment [3] (setting [8]) was 100% each time.
Consider `Cc1c(C(=O)c2ccccc2)c2ccccc2n1C(C)CSc1ccccn1` (stereo not shown) [(405), 3-Benzoyl-2 methyl-1-[1-(2-pyridylthio)-2-propyl]indole], for which the IC50 in experiment [1] (setting [4]) was 0.5 µg/mL (≈ 1.29 µM). The inhibition at 10 mg/kg in experiment [2] (setting [5]), in experiment [2] (setting [6]), in experiment [3] (setting [7]) and in experiment [3] (setting [8]) was 100% throughout.
For the compound `CCC(C)n1c(C)c(C(=O)c2ccccc2)c2ccccc21` (stereo not shown) [(701), 3-Benzoyl-1-(2-butyl)-2-methylindole], the inhibition at 10 mg/kg in experiment [3] (setting [7]) and in experiment [3] (setting [8]) was 100% in each case.
Take `COC[C@@H](C)n1c(C)c(C(=O)c2ccccc2)c2ccccc21` [(346), 3-Benzoyl-1-[1-methoxy-2(R)-propyl]-2-methylindole]: the IC50 in experiment [1] (setting [4]) amounted to 0.05 µg/mL (≈ 0.163 µM).
With `Cc1c(C(=O)c2ccccc2)c2ccccc2n1C(C)CCS` (stereo not shown) [(423), 3-Benzoyl-1-(4-mercapto-2-butyl)-2-methylindole], the inhibition at 10 mg/kg in experiment [2] (setting [5]), in experiment [2] (setting [6]), in experiment [3] (setting [7]) and in experiment [3] (setting [8]) was 100% each time.
`COC[C@H](C)n1c(C)c(C(=O)c2ccccc2)c2ccccc21` [(347), 3-benzoyl-1-[1-methoxy-2(S)-propyl)-2-methylindole]: in experiment [1] (setting [4]), the IC50 worked out at 0.075 µg/mL (≈ 0.244 µM).
In the case of `Cc1c(C(=O)c2ccccc2)c2ccccc2n1[C@@H](C)CO` [(136), 3-Benzoyl-1-(1-hydroxy-2(S)-propyl]-2-methylindole], in experiment [1] (setting [4]), the IC50 amounted to 0.05 µg/mL (≈ 0.17 µM).
As for `COCCn1c(C)c(C(=O)c2ccccc2)c2ccccc21` [Comparison 4, reference compound], the inhibition at 10 mg/kg in experiment [2] (setting [5]) amounted to 38%; in experiment [2] (setting [6]), 7.6%; in experiment [3] (setting [7]), 45.5%; in experiment [3] (setting [8]) it was 7.1%.
As for `Cc1c(C(=O)c2ccccc2)c2ccccc2n1C(C)C(=O)O` (stereo not shown) [Comparison 1, reference compound], in experiment [1] (setting [4]), the IC50 came out at 50 µg/mL (≈ 163 µM).
With `Cc1[nH]c2ccccc2c1C(=O)c1ccc(Cl)cc1` [Comparison 6, reference compound], the inhibition at 10 mg/kg in experiment [2] (oral dosage 10 mg/kg, 5 µg/ml collagen floating solution, blood taken 1 hour after administration, read-out: Rate of inhibition of platelet aggregation, Collagen, After 1 hour) worked out at 36%; in experiment [2] (oral dosage 10 mg/kg, 5 µg/ml collagen floating solution, blood taken 4 hours after administration, read-out: Rate of inhibition of platelet aggregation, Collagen, After 4 hours) it was 28.9%; in experiment [3] (setting [7]) it was 12.3%; in experiment [3] (setting [8]), 6%.
Turning to `Cc1c(C(=O)c2ccccc2)c2ccccc2n1C(C)CCSc1ccccn1` (stereo not drawn) [(414), 3-Benzoyl-2-methyl-l-(4-(2-pyridylthio)-2-butyl]indole], the inhibition at 10 mg/kg in experiment [3] (setting [7]) and in experiment [3] (setting [8]) was 100% in each case.
Take `Cc1c(C(=O)c2ccccc2)c2ccccc2n1[C@H](C)CO` [(135), 3-Benzoyl-1-[1-hydroxy-2(R)-propyl]-2-methylindole]: the IC50 in experiment [1] (setting [4]) came out at 0.025 µg/mL (≈ 0.0852 µM).
Regarding `Cc1[nH]c2ccccc2c1C(=O)c1ccccc1` [Comparison 2, reference compound], the IC50 in experiment [1] (setting [4]) is 5 µg/mL (≈ 21.3 µM).

Usually IC50 stands for the concentration at which inhibition is half-maximal. Broadly, the inhibition is the change of the read-out against control, counted positive when it falls.
